Values quoted from earlier work in patent US6991777B2, “Methods for in vivo evaluation of physiological conditions and/or organ or system function including methods to evaluate cardiopulmonary disorders such as chronic heart failure using polarized 129 Xe” (Medi-Physics, Inc., priority 2001, dated 2006).

Columns and labels:
[1] = dogs, whole lung
[2] = after inhalation into the lungs

## [Xe] [polarized ^129Xe, Xenon-129]
[1]; blood compartment
  time constant τ (uptake and/or dissolved gas-exchange transit time), blood compartment: ~70 ms
[1]; tissue compartment
  time constant τ (uptake and/or dissolved gas-exchange transit time), tissue compartment: about 61 ms
other
  diffusion constant of xenon in water: about 2×10^−5 cm^2/s
[2]
  fraction of inhaled gas that transits into the pulmonary blood: roughly 0.3 % per/second
  time until Xe begins to dissolve into the pulmonary blood stream: under 100 ms
